Data: patent publication US20050118290A1, “Compositions and method for treatment of steroid/nuclear receptor-mediated diseases” (University of Singapore, priority 2003, published 2005)

Assays:
Format in all cases: cell-based
[1] = biological target: T1, Glucocorticoid Receptor (Homo sapiens, UniProt P04150); experiment: GR (ARE)2-Luc luciferase reporter gene assay; details: HQ extract 0 ×10^−6 g/mL (hormone only)
T1 construct: expressed in transfected cells
T1 sequence (P04150 1-777): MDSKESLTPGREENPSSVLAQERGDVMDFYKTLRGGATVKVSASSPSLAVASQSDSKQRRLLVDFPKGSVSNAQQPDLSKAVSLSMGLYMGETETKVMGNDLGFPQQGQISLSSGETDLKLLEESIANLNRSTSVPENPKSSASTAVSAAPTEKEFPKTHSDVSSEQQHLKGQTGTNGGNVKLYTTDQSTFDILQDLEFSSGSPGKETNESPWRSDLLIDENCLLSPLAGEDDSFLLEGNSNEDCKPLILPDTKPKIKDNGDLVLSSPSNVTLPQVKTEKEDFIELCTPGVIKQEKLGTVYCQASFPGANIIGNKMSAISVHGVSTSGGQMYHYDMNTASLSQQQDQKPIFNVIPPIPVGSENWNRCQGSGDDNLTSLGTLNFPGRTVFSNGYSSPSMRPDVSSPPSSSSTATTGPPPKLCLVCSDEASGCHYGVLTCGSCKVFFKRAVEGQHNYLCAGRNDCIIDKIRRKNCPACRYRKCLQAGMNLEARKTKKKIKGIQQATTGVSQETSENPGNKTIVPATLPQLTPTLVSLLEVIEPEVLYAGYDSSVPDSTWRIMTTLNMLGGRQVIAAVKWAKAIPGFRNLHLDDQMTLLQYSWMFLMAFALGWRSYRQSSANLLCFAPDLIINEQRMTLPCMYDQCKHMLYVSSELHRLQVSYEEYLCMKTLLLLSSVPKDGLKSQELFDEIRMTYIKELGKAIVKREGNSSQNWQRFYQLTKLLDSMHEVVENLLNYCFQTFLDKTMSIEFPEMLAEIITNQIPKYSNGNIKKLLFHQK
Method: (§1) The capacity of HQ extract to activate other steroid receptors, namely AR, PR, GR, ERα and ERβ was examined. […] The (ARE)2-Luc plasmid consist of two repeats of Androgen Response Element (ARE) cloned upstream of the Luciferase Reporter gene in a pGL3-Basic vector (Promega).
(§2) AR, PR, GR and ERα and […] were determined by comparing luciferase activity in test cells with control cells exposed to vehicle (i.e., ethanol or methanol) only, analogous to the determination of PPAR activity as described in the previous examples.

[2] = biological target: T2, Progesterone Receptor (Homo sapiens, UniProt P06401); experiment: PR (ARE)2-Luc luciferase reporter gene assay; details: with progesterone 10×10^−6M
T2 construct: expressed in transfected cells; host or cells: HeLa (named for the formononetin and daidzein experiments)
T2 sequence (P06401 1-933): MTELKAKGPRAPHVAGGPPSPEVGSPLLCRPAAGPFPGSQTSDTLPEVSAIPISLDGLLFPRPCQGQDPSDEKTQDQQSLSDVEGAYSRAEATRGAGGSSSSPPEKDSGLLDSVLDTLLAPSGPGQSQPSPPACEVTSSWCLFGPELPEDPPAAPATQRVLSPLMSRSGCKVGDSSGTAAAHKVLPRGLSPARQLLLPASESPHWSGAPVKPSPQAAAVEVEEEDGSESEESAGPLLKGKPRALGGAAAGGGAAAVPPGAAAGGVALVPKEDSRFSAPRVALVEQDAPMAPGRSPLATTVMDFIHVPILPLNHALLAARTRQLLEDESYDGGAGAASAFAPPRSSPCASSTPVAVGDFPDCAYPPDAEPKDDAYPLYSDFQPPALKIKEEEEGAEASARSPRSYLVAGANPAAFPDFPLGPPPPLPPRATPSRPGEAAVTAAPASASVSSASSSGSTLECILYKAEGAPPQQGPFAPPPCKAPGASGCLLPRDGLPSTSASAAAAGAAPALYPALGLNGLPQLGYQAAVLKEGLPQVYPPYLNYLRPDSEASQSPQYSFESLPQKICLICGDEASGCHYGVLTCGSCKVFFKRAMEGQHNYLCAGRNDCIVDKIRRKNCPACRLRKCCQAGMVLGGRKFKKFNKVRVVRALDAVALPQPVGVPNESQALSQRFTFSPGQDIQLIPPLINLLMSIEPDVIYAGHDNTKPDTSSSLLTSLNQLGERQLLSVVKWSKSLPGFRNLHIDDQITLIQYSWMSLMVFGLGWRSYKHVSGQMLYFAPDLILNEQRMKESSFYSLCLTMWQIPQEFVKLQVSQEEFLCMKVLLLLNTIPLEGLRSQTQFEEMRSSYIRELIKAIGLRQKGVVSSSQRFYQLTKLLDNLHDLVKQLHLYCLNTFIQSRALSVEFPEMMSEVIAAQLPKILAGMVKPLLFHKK
Method: as §1, §2

[3] = biological target: T3, PPARγ (Homo sapiens, UniProt P37231); experiment: Chimeric Gal4DBD-PPARγLBD receptor / UASg-luciferase reporter gene assay in HeLa cells
T3 construct: expressed in transfected cells; host or cells: HeLa
T3 sequence (P37231 238-503 limits assumed): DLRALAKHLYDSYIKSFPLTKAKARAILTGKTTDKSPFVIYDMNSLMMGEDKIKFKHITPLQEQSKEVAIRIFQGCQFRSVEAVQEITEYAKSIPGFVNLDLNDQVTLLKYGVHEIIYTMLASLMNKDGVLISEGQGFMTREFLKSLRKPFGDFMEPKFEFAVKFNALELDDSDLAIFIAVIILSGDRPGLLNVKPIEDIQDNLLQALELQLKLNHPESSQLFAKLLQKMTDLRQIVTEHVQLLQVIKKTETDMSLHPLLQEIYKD
Description: (§3) In an example of such a reporter gene assay, a plasmid containing chimeric Ga14DBD-PPARLBD receptor cDNA was constructed by excising the ligand binding domain (LBD) of full length PPARγ and PPARα and ligating the resulting fragments in frame to the Ga14-DNA binding domain (DBD) of Saccharomyces cerevisiae in a pM vector (Clontech). Specifically, to construct Ga14DBD-PPARγLBD plasmid, pSG5 expression vector (Stratagene) containing full length PPARγ was excised with Rsa I and blunt ligated to Hind III site of pMGa14DBD expression plasmid (Clontech). To construct Ga14DBD-PPARαLBD plasmid, pSG5 expression vector (Stratagene) containing full length PPARα was excised with BstU I and BamH I and blunt-end ligated in frame to BamH I site of pMGa14DBD expression plasmid (Clontech). […] Ga14 DBD binds very strongly to the exogenous UASg promoter, thereby giving rise to a sensitive and specific assay. To measure PPARγ and PPARα agonist activity, HeLa cells were grown in 24-well microtiter plates and then transiently co-transfected with the two plasmids (chimeric PPAR receptor and UASg reporter gene) using Lipofectamine (Invitrogen). […] Concurrently, cells exposed to known PPAR ligands served as positive controls. Replicate wells, exposed to the vehicle solvent (i.e., ethanol or methanol) in which herbal extracts were dissolved, were used as negative controls. After the 40 hr incubation period, cells were rinsed with phosphate buffered saline (PBS), lysis buffer was added, and cell lysates were collected for measurement of luciferase activity using a luminometer. […] All data points are in triplicate. The data points represent the mean of triplicate wells. Luciferase activity in such an assay accurately reflects the activity of any ligands on PPARγ or PPARα.

[4] = biological target: T4, PPARα (Homo sapiens, UniProt Q07869); experiment: Chimeric Gal4DBD-PPARαLBD receptor / UASg-luciferase reporter gene assay in HeLa cells
T4 construct: expressed in transfected cells; host or cells: HeLa
T4 sequence (Q07869 239-466 limits assumed): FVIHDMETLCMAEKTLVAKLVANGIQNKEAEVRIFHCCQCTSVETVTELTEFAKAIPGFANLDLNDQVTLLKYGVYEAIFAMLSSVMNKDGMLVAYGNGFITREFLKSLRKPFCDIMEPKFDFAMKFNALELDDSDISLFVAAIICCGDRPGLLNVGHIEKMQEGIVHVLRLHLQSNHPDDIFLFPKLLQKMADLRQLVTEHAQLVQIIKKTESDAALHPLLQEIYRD
Description: as §3

[5] = biological target: T5, human estrogen receptor ERβ (Homo sapiens, UniProt Q92731); experiment: ERβ MMTV-ERE-LUC reporter gene assay in HeLa cells
T5 construct: expressed in transfected cells; host or cells: HeLa
Method: (§4) ERα and ERβ activity were assayed using plasmids encoding either ERα or ERβ co-transfected with the ERE-LUC reporter gene. To assay estrogen receptor agonist activity, HeLa cells were transiently co-transfected with two plasmids (Tcherepanova, et al., 2000) using Lipofectamine. The first plasmid comprised DNA encoding human estrogen receptor (either ERα or ERβ), and the second plasmid comprised an estrogen-driven reporter system comprising: a luciferase reporter gene (LUC) whose transcription is under the control of upstream regulatory elements comprising 4 copies of the vitellogenin estrogen response element (ERE) cloned into the Mouse Mammary Tumor Virus (MMTV) promoter (the full name of the reporter system being ‘MMTV-ERE-LUC’).
as §2

[6] = biological target: T6, human estrogen receptor ERα (Homo sapiens, UniProt P03372); experiment: ERα MMTV-ERE-LUC reporter gene assay in HeLa cells
T6 construct: expressed in transfected cells; host or cells: HeLa
T6 sequence (P03372 1-595): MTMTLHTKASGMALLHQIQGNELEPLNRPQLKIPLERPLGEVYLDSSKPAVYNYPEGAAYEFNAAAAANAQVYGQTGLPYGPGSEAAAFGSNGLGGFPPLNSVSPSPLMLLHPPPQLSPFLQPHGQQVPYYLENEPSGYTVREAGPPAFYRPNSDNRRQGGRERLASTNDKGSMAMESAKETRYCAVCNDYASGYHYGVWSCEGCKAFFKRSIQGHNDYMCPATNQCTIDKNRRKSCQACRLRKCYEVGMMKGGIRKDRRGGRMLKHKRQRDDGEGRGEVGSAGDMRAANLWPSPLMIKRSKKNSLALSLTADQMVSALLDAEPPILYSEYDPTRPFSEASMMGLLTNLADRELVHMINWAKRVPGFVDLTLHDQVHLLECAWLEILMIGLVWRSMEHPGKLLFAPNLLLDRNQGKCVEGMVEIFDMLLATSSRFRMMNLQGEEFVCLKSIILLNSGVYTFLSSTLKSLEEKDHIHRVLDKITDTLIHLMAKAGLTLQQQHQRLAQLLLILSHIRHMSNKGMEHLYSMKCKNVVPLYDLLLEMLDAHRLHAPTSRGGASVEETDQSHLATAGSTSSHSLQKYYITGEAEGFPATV
Method: as §4, §2

T5 sequence (Q92731 whole entry): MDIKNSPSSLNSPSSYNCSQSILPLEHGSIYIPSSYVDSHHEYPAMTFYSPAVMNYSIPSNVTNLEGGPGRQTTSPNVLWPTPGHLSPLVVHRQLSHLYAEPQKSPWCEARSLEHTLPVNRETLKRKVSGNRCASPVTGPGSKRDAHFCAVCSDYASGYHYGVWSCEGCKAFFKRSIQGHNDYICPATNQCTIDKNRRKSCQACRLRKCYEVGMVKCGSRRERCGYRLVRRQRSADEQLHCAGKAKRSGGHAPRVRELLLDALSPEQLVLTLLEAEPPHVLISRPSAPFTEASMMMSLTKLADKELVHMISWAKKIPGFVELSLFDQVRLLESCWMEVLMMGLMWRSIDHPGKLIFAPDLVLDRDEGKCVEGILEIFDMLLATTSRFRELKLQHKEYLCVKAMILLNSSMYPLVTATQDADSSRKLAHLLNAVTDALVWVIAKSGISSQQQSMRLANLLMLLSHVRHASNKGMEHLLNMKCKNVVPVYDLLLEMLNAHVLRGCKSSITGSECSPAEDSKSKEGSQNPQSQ

Row | SMILES | Luciferase activity (Fold ± SE) Glucocorticoid Receptor/Hydrocortisone (1 × 10^−9 M) [1] [Fold] | increase of the activity of maximal doses of PR agonist [2] [fold] | PPARγ activity when added to pioglitazone compared with pioglitazone alone ([3]; 3 to 30 ×10^−6 g/mL + pioglitazone 30×10^−6M) | increase of PPARγ activity, up to ([3]; Table 8) | increase of PPARα activity, up to ([4]; Table 8) [fold] | increase of the activity of maximal doses of PPARα agonist ([4]; with WY14643 30×10^−6M) [fold] | effect on ERβ activity of estradiol ([5]; 1 to 30×10^−6 g/mL + estradiol 1×10^−9M) | ERβ activity comparable to % maximal activity of Estradiol ([5]; 30×10^−6 g/ml) [%] | ERα activity comparable to % maximal activity of Estradiol ([6]; 30×10^−6 g/ml) | increase of the activity of maximal doses of estradiol on ERα ([6]; with estradiol 1×10^−9M) [fold]
1 | C[C@]12CCC(=O)C=C1CC[C@@H]1[C@@H]2[C@@H](O)C[C@@]2(C)[C@H]1CC[C@]2(O)C(=O)CO [Hydrocortisone, hydrocortisone] | 11014 ± 285 | – | – | – | – | – | – | – | – | –
2 | COc1ccc(-c2coc3cc(O)ccc3c2=O)cc1 [formononetin, 7-Hydroxy-4′-methoxyisoflavone] | – | 1.8 | no different than that observed with pioglitazone alone | up to 6 fold | ≤ 10 | 4.4 | did not inhibit or augment the activity of estradiol alone | ~400 | comparable to maximal activity of Estradiol | 3.2
